Literature values, collected in patent US7217837B2, “Method for producing organic acid” (Mitsubishi Chemical Corporation, priority 2002, dated 2007).

Assays:
[1] = Table 1; literature values
[2] = water, Table 1, literature values
[3] = Table 1; for pKa1: literature values (Pyne Organic Chemistry; Handbook of Chemistry and Physics); for pKa2: literature values

SMILES | Isoelectric point pI [1] | Solubility at 25° C. [2] [g/100 gH2O] | pKa1 [3] | pKa2 [3]
NC(=O)C[C@H](N)C(=O)O [Asparagine] | 5.41 | 3.11 | 2.02 | –
N[C@@H](CC(=O)O)C(=O)O [Aspartic acid] | 2.98 | – | – | –
N[C@@H](CCC(=O)O)C(=O)O [Glutamic acid] | 3.08 | – | – | –
NC(=O)CC[C@H](N)C(=O)O [Glutamine] | – | 3.6 | – | –
O=C(O)CCCC(=O)O [Glutaric acid] | – | – | 4.31 | 5.41
N[C@@H](Cc1c[nH]cn1)C(=O)O [Histidine] | 7.64 | 4.29 | – | –
CC[C@H](C)[C@H](N)C(=O)O [Isoleucine] | 6.04 | 4.117 | 2.32 | –
CC(C)C[C@H](N)C(=O)O [Leucine] | – | 2.19 | – | –
O=C(O)CC(O)C(=O)O (stereo not drawn) [Malic acid] | – | – | 3.40 | 5.11
CSCC[C@H](N)C(=O)O [Methionine] | 5.74 | 3.35 | 2.28 | –
N[C@@H](Cc1ccccc1)C(=O)O [Phenylalanine] | 5.91 | 2.965 | 2.58 | –
O=C(O)CCCCCCC(=O)O [Suberic acid] | – | – | 4.52 | –
N[C@@H](Cc1c[nH]c2ccccc12)C(=O)O [Tryptophan] | 5.88 | 1.14 | 2.38 | –
N[C@@H](Cc1ccc(O)cc1)C(=O)O [Tyrosine] | 5.66 | – | – | –
CC(C)[C@H](N)C(=O)O [Valine] | 6 | 8.85 | 2.29 | –
